“Also recorded” adds a separate entry of the source.
System: human reference serum 007sp
Assay: Glycan array, antibody binding from human reference serum 007sp with CPS/CWPS competition
Details: glycan array competition experiment, serum 007sp (FIG. 5, FIG. 6), 24* compared with 16*
Method: Pyruvated SP4 tetrasaccharide 24* was dissolved at 10 mM in water and diluted to 100 μM and 50 μM in coupling buffer (50 mM sodium phosphate, pH 8.5). Each concentration was spotted in duplicates to CodeLink activated glass slides (Surmodics) alongside a number of related structures and native polysaccharides (see FIG. 4 for printing pattern) using a Scienion S3 microarray printer at 65% relative humidity. The slides were incubated in a humidity saturated chamber overnight. They were washed twice with water and quenched by incubation with 100 mM ethanolamine, 50 mM sodium phosphate pH 9 for one hour at room temperature. They were washed again twice, dried by centrifugation and stored at 4° C. until use.
Slides were blocked by incubation with 1% BSA-PBS at room temperature, washed twice with PBS and dried by centrifugation. A 64 well incubation gasket was attached to the glass slides.
Sera (rabbit SP4 typing serum (SSI Diagnostica, Denmark) or human reference serum 007sp (Clin. Vaccine Immunol. 2011 18 (10), 1728)) were diluted in 1% BSA-PBS containing no competitors or native SP4 CPS (capsular polysaccharide) or CWPS (S. pneumoniae cell wall polysaccharide) as competitors. […] It was dried by centrifugation and the fluorescence was read out using s GenePix 4300a fluorescence reader.

CC(=O)N[C@@H]1[C@H](O[C@@H]2[C@H](O)[C@H](C)O[C@@H](O[C@H]3[C@@H](O)[C@@H](CO)O[C@H](O[C@@H]4[C@H](O)[C@@H](O)[C@@H](OCCCCCN)O[C@@H]4CO)[C@@H]3NC(C)=O)[C@H]2NC(C)=O)O[C@H](CO)[C@@H](O)[C@@H]1O [compound 16*, N-((2R,3S,4R,5S,6R)-2-(((2S,3S,4S,5R,6S)-3-acetamido-2-(((2R,3R,4R,5R,6R)-3-acetamido-2-(((2R,3R,4R,5R,6S)-6-((5-aminopentyl)oxy)-4,5-dihydroxy-2-(hydroxymethyl)tetrahydro-2H-pyran-3-yl)oxy)-5-hydroxy-6-(hydroxymethyl)tetrahydro-2H-pyran-4-yl)oxy)-5-hydroxy-6-methyltetrahydro-2H-pyran-4-yl)oxy)-4,5-dihydroxy-6-(hydroxymethyl)tetrahydro-2H-pyran-3-yl)acetamide]
inhibition (decline) of signal by native S. pneumoniae serotype 4 CPS: Compared to unpyruvated tetrasaccharide 16*, the signal for the pyruvated saccharide 24* can be inhibited far more efficiently; also recorded: much stronger for pyruvated tetrasaccharide 24* (spot B) compared with unpyruvated tetrasaccharide 16*
